Measured values taken from PubChem BioAssay (NCI).
Several values for one entry are separate records, joined by “and”; a condition that tells them apart may be missing. Equal entries are not always repeated.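 1) Cells in 96-well plates. 2) Compound, 48 h, 5 concentrations. 3) Linear interpolation between surrounding doses. 4) Unreached endpoint = highest concentration. GI50: concentration for 50% inhibition of growth. At the TGI there is no net growth.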

Legend:
Assay in all cases: NCI tumour cell line growth inhibition, 48 h
786-0 renal = system: 786-0 renal
EKVX NSCLC = system: EKVX NSCLC
HL-60(TB) leukemia = system: HL-60(TB) leukemia
KM12 colon = system: KM12 colon
MALME-3M melanoma = system: MALME-3M melanoma
RXF 393 renal = system: RXF 393 renal
SN12C renal = system: SN12C renal
TK-10 renal = system: TK-10 renal
UACC-62 melanoma = system: UACC-62 melanoma
PC-3 prostate = system: PC-3 prostate

SMILES	TGI (786-0 renal) [µM]	TGI (EKVX NSCLC) [µM]	TGI (HL-60(TB) leukemia) [µM]	TGI (KM12 colon) [µM]	TGI (MALME-3M melanoma) [µM]	TGI (RXF 393 renal)	TGI (SN12C renal) [µM]	TGI (TK-10 renal) [µM]	TGI (UACC-62 melanoma) [µM]	GI50 (786-0 renal) [µM]	GI50 (HL-60(TB) leukemia) [µM]	GI50 (MALME-3M melanoma) [µM]	GI50 (PC-3 prostate) [µM]	TGI (PC-3 prostate) [µM]	GI50 (RXF 393 renal) [µM]	GI50 (TK-10 renal) [µM]	GI50 (UACC-62 melanoma) [µM]	GI50 (KM12 colon) [µM]	GI50 (SN12C renal) [µM]
Cc1cc(Br)cc(C)c1NC(=O)C(=O)CC(=O)c1sc(-n2nc(-c3ccccc3)cc2-c2ccccc2)nc1C	> 100	> 100	> 100	> 100	> 100	> 100 µM	> 100	> 100	> 100	–	–	–	–	–	–	–	–	–	–
O=C1C2=C(c3ccccc31)C(c1cccc(Cl)c1)NC(=S)N2 (centres undefined)	> 100	> 100	> 100	> 100	> 100	–	> 100	> 100	> 100	–	–	–	–	–	–	–	–	–	–
COc1ccc(-c2oc3cc(O)c(OC)c(O)c3c(=O)c2OC2OC(CO)C(O)C(O)C2O)cc1 (centres undefined)	> 100	> 100	> 100	> 100	–	–	> 100	> 100	> 100	–	–	–	–	–	–	–	–	–	–
COC(=O)Nc1nc2ccc(C(=O)c3ccc[nH]3)cc2[nH]1	> 100	> 100	0.927	> 100	> 31.3	4.78 µM	> 100	> 93.6	> 100	–	–	–	–	–	–	–	–	–	–
COC1C=C(Nc2cccc(Cl)c2)C(=O)C1 (centres undefined)	> 100	55.3	> 100	> 100	> 100	92.9 µM	> 100	> 100	> 100	–	–	–	–	–	–	–	–	–	–
C1CCC([PH+](C2CCCCC2)C2CCCCC2[PH+](C2CCCCC2)C2CCCCC2)CC1.[Au].[CH-]1CCCCC1C1CCCC[N-]1 (centres undefined)	1.9	–	0.826	–	0.844	1.18 µM	–	1.86	0.979	0.43	0.272	0.208	0.249	5.26	0.278	0.463	0.254	–	–
C=C(c1ccccc1N)[C@@]1(O)C[C@H](/C(=C\C)CO)C[C@@H]1NCc1ccccc1	46	> 100	29.9	33.7	28.4	49.3 µM	> 100	44.1	> 100	–	–	–	–	–	–	–	–	–	–
CCOC(=O)C1C=C2O[C@@H]3OC4(CCCCC4)O[C@@H]3C2[C@H]2C(=O)C=CC(=O)[C@@]12C(=O)OC (some centres undefined)	18.7	36.1	5.83	27.8	31.2	3.59 µM	31.5	26.5	30.9	–	–	–	–	–	–	–	–	–	–
CCOC(=O)/N=c1\ss/c(=N\C(=S)N(C)C)n1-c1ccccc1	> 100	> 100	> 100	> 100	> 100	7.13 µM and 44.2 µM	> 100	> 100	> 100	–	> 100	> 100	–	–	15.3	–	–	> 100	> 100
S=c1[nH]nc(COc2ccc(Cl)cc2)o1	> 100	> 100	> 100	> 100	> 100	–	> 100	> 100	> 100	–	–	–	–	–	–	–	–	–	–
CC(C)=CC(=O)CC(=O)C(=O)Nc1ccc(C)c(C)c1	> 100	> 100	> 100	> 100	> 100	–	> 100	> 100	> 100	–	–	–	–	–	–	–	–	–	–
